Experimental data from patent US9492368B2, “External preparation for skin” (HAYASHIBARA CO., LTD., priority 2011, dated 2016).
Marks after values point to notes of the source that are not given here.

Assays:
[1] = tested on: profilaggrin; assay: Differentiation of keratinocytes: profilaggrin protein expression in NHEK cells by western blotting; type: cell-based, human; conditions: eight days, relative to no addition = 1
Text: For the anti-wrinkle action of glucosyladenosines, the effect of glucosyladenosines on keratinocytes in the skin was examined as follows using normal human epidermal keratinocytes commonly used for evaluating accelerators for differentiating keratinocytes in the skin. Using normal human epidermal keratinocytes (derived from human newborn and commercialized by Kurabo Industries Ltd., Okayama, Japan, and abbreviated as “NHEK cells”, hereinafter), the effects of glucosyladenosines on the differentiation of keratinocytes was evaluated by comparing the expression level of profilaggrin, as a marker protein of cells in the granular layer, which is specifically expressed in the cells when keratinocytes differentiate into the cells from those in the basal lamina and which is determined by the western blotting method using an antibody specific to the marker protein. In this experiment, the increment of profilaggrin means that cells in the granular layer have been increased as a result of accelerating the differentiation of keratinocytes in the basal lamina.
NHEK Cells, which had been suspended in EpiLife medium, commercialized by Caskade Biologics Inc., Oregon, USA, containing EDGS (EpiLife Defined Growth Supplement) (abbreviated as “EpiLife medium containing EDGS”, hereinafter), were inoculated to “FALCON MULTI-WELL™ 6WELL”, 6-well plate, commercialized by Becton, Dickinson and Co., NJ, USA, which had been coated with “Cellmatorix Type IV”, a product name of collagen, commercialized by Nitta Gelatin Inc., Osaka, Japan, in a cell amount of 5×10^5 cells/1.5 ml/well; and cultured at 37° C. for two days under a 5 v/v % CO2 condition. […] As control 1, adenosine was diluted with EpiLife medium to give a final concentration of 0.1 μM, 1 μM or 10 μM, and the dilution was added to the plates in a volume of 1.5 ml/well. As control 2, EpiLife medium was only added to plates in a volume of 1.5 ml/well. Thereafter, the cells were incubated for eight days while replacing the medium in each well with a fresh preparation of the same medium as added initially every other day. The culture medium in each well was removed by aspiration, and the resulting cells were washed by adding PBS, followed by adding an extraction buffer to the cells in a volume of 100 μl/well, detaching the cells from each well with a cell scraper, and collecting the cells in “EPPENDORF TUBE”, a product name of a 1.5 ml microtube, commercialized by Eppendorf AG, Hamburg, Germany. The collected cells were mixed by a vortex mixer, suspended, allowed to stand over ice for 30 min, and centrifuged at 15,000×g for 10 min at 4° C. to collect a supernatant for use as a sample for analysis. 20 mM Tris-HCl buffer (pH 8.0) containing 2% by mass of sodium dodecyl sulfate (SDS), 1 mM edetic acid, 20 μM phenylmethylsulfonyl fluoride (PMSF), 20 μM leupeptin, and 0.1 μM aprotinin was used as an extraction buffer.
Twelve microliters of the above sample for analysis was added to eight micriloters of 2.5 w/v % SDS aqueous solution containing 5 v/v % dithiothreitol (DTT), and the mixture was in usual manner subjected to SDS-polyacrylamide gel electrophoresis after charged on an SDS-polyacrylamide gel in an amount of 20 μg protein per lane. After completing the electrophoresis, proteins contained in the gel were in usual manner transferred to a nitrocellulose membrane, which was then soaked in “BlockAce”, a product name of a blocking solution commercialized by Dainippon Sumitomo Pharma Co., Ltd., Osaka, Japan, to inhibit non-specific reactions. […]

[2] = tested on: keratinocyte growth factor (KGF); assay: Expression of keratinocyte growth factor in NHDF cells (real-time PCR); type: cell-based, human; conditions: four hours, control = 1.0
Text: The confirmation that glucosyladenosines have an action of enhancing the differentiation of keratinocytes in Experiments 5 and 7 led to an examination on keratinocyte proliferation. The effects of 5′- and […] on the expression of keratinocyte growth factor (KGF) in normal human dermal fibroblasts (NHDF) were compared. […] After the culture, the supernatant in each well was removed and added with 5′-glucosyladenosine obtained by the method in Experiment 1-2 or 3′-glucosyladenosine obtained by the method in Experiment 2, which were respectively diluted with a DMEM medium supplemented with 1 v/v % FCS to give respective concentrations of 0.15 mM and 1.5 mM. A DMEM medium supplemented with 1 v/v % FCS but with no glucosyladenosines was used as a control. The cells were cultured at 37° C. for four hours under a 5 v/v % CO2 condition, washed twice with PBS(−) after removing the culture supernatants in each well by aspiration, and fed to an RNA extraction.
“QIA shledder+RNeasy Mini Kit”, a product name of a commercialized RNA extraction kit, produced by GIAGEN Benelux B.V., Netherlands, was used to extract the total RNAs. The handlings followed the operating instructions attached to the kit. Using “Super Script VILO cDNA Synthesis Kit”, a product name of a cDNA synthesis kit, commercialized by Invitrogen Corporation, CA, USA, an RT reaction was conducted under the conditions of treating a mixture of 10.5 μl of RNA, three microliters of 5×VILO reaction mix, 1.5 μl of 10× enzyme mix (15 μl in total) at 25° C. for 10 min, 42° C. for 60 min, and then 85° C. for five minutes.
Using “LightCycler 480 SYBR Green I Master”, a product name of Roche Diagnostics K.K., Tokyo, Japan, a real-time PCR reaction was conducted by mixing 1.8 μl of water, 6.0 μl of master mix, 0.6 μl of primer L (10 μM), 0.6 μl of primer R (10 μM), and 3.0 μl of template (12.0 μl in total), and treated with 45 cycles of a successive incubation cycle at 95° C. for 10 sec, 60° C. for 10 sec, and 72° C. for 15 sec). The KGF expression level in each sample was calculated from a standard curve and calibrated with the expression level of an internal standard (18s rRNA). Relative value for each sample was determined, when the expression level of the control was regarded as 1.0, and evaluated. The primers used were of Table 9.

[3] = tested on: three-dimensional skin model (EPI-200 Kit); assay: Residual property in three-dimensional skin model (composition of permeated solution after 24 hours); conditions: 0.1% test sample in 30% ethanol
Description: (§1) “EPI Assay Medium”, a product name of EPI100 assay medium commercialized by Kurabo Industries Ltd., Okayama, Japan, was added to “12-WELL MULTI-MICROPLATE”, a product name of 12-well plate commercialized by Becton, Dickinson and Company, NJ, USA, in a volume of 0.33 ml/well; and “EPI-200 Kit”, a product name of a three-dimensional skin model cup, commercialized by Kanebo Cosmetics Inc., Tokyo, Japan, was transferred to each well. […] 5′-Glucosyladenosine prepared by the method in Experiment 1-2,3′-glucosyladenosine prepared by the method in Experiment 2, or adenosine was dissolved in 30% ethanol to give a final concentration of 0.1%, and 0.1 ml of each of the resulting solutions was added to each of the skin model cup. After incubating at 37° C. for 24 hours in a 5% CO2 condition, sample solutions (media in wells) were collected, subjected to ultrafiltration with “[sequence] 0.5 BIOMAX-5 MEMBRANE”, a product name of membrane commercialized by Nihon Millipore K.K., Tokyo, Japan, and diluted with the mobile phase. The diluent was subjected to HPLC under the following conditions and determined for the contents of 5′- and 3′-glucosyladenosines with an alternatively prepared standard curve.
<Conditions for HPLC Analysis>
(§2) Apparatus: an HPLC Pump, MODEL 510; a pump controller, MODEL 680; an autoinjector, MODEL 712; a detector, MODEL 2487; a data processing (quantity calculation), EMPOWER 2 SOFTWARRE, commercialized by Nihon Millipore K.K., Tokyo, Japan;
(§3) Column: “YMC-PACK ODS AQ-303”, a product name of an ODS column, ø4.6 mm×250 mm, commercialized by YMC Co., Ltd., Kyoto, Japan;
(§4) Mobile phase: {20 mM Acetic acid-ammonium acetate buffer (pH 3.5)}/(methanol)=92/8 (v/v);
Detection wavelength: 260 nm;
Injection volume: 10 μl; and
Column temperature: 40° C.

[4] = tested on: three-dimensional skin model (EPI-200 Kit); conditions: human, 24 h, 0.1 %
Description: as §1
<Conditions for HPLC Analysis>
as §2, §3, §4
Detection wavelength: 260 nm;
Injection volume: 10 μl; and
Column temperature: 40° C.

SMILES	Expression level of profilaggrin ([1]; 0.1 μM in medium)	Expression level of profilaggrin ([1]; 1 μM in medium)	Expression level of profilaggrin ([1]; 10 μM in medium)	Relative expression level of KGF ([2]; 0.15 mM)	Relative expression level of KGF ([2]; 1.5 mM)	Composition of permeated solution: 3′-glucosyladenosine [3]	Concentration of 3′-glucosyladenosine in permeated solution [3]	Composition of permeated solution: 5′-glucosyladenosine [3]	Concentration of 5′-glucosyladenosine in permeated solution [3]	Composition of permeated solution: adenosine [4]	Composition of permeated solution: hypoxanthine [4]	Composition of permeated solution: inosine [4]	Concentration of adenosine in permeated solution [4]	Concentration of hypoxanthine in permeated solution [4]	Concentration of inosine in permeated solution [4]
Nc1ncnc2c1ncn2[C@@H]1O[C@H](CO)[C@@H](O[C@H]2O[C@H](CO)[C@@H](O)[C@H](O)[C@H]2O)[C@H]1O [3′-Glucosyladenosine, α-D-glucopyranosyl-(1→3′)-adenosine]	1.6*	2.4**	2.0**	2.3	2.7	27%	25 µM	–	–	–	–	–	–	–	–
Nc1ncnc2c1ncn2[C@@H]1O[C@H](CO[C@H]2O[C@H](CO)[C@@H](O)[C@H](O)[C@H]2O)[C@@H](O)[C@H]1O [5′-Glucosyladenosine, α-D-glucopyranosyl-(1→5′)-adenosine]	2.1*	3.8**	2.8**	0.9	1.4	–	–	65%	60 µM	–	–	–	–	–	–
Nc1ncnc2c1ncn2[C@@H]1O[C@H](CO)[C@@H](O)[C@H]1O [Adenosine, reference compound]	1.1	1.2	0.9	–	–	–	–	–	–	0%	77%	23%	0 nM	187 µM	55 µM
